The values that follow come from patent US8911342B2, “Apparatus and method for pulsed electrical field treatment” (Re5 ApS, priority 2009, dated 2014).

The test system of the assay is Human neural cells line from sympatic ganglia - SHSY-5Y. The settings on record: sertraline 10 μM 24 hours, then PEMF 2 hrs at 50 or 55 Hz, vs control cells, PCR array.

As to `CN[C@H]1CC[C@@H](c2ccc(Cl)c(Cl)c2)c2ccccc21` [sertraline, (1S,4S)-4-(3,4-dichlorophenyl)-N-methyl-1,2,3,4-tetrahydronaphthalen-1-amine], the “Fold increase in mRNA, Bone morphonogenic Protein 1 (BMP1)” value was 4 fold; the “Fold increase in mRNA, Bone morphonogenic Protein 5 (BMP5)” value was found to be 8 fold; the “Fold increase in mRNA, IL-17B” value turned out to be 8 fold; the “Fold increase in mRNA, IL-18” value is given as 4 fold. Also, the “Fold increase in mRNA, IL-20” value worked out at 4 fold; the “Fold increase in mRNA, IL-21” value is recorded as 4 fold; the “Fold increase in mRNA, Il-8” value was found to be 8 fold; the “Fold increase in mRNA, Interleukin 10 (IL-10)” value is on record as 1 fold. Also, the “Fold increase in mRNA, TNF SF10” value was 8 fold; the “Fold increase in mRNA, TNF SF11” value was 2 fold; the “Fold increase in mRNA, TNFR SF11” value is given as 8 fold; the “Fold increase in mRNA, Transforming growth factor beta 3 (TGFB3)” value turned out to be 5 fold. Also, the “Fold increase in mRNA, Tumor necrosis factor (TNF)” value came out at 8 fold.
